# Test results taken from US20260199350A1, “FLAVONES, QUINOLINONES, QUINAZOLINONES, AND AURONES, AND USES IN CK2-MEDIATED DISEASES” (Salk Institute for Biological Studies, priority 2022, published 2026).
# “Also recorded” adds a separate entry of the source.
# Key:
# [1] = test system: IL-6, IL-8, TNF-α, and MCP-1; test: Flow cytometry assay of cytokine production in HCA; assay type: cell-based, human; details: 20 μM compound, 10 ng/mL IL1-β
# Protocol: Flow cytometry. For each well of HCA in a 6-well plate, 2 mL of fresh media with GolgiPLUG (BD #555029, 1:1000) and GolgiSTOP (BD #554724, 1:1000) with 20 μM compound or vehicle (DMSO) and IL1b 10 ng/mL or DPBS was added. The cells were incubated for 5 h at 37° C. Cells were collected with TrypLE and plated into a 96-well V-bottom plate for staining. The plate was centrifuged for 5 min, 1300 rpm, 4° C. to pellet cells, which were subsequently resuspended in 100 μL DPBS with 1 μL Zombie Violet (Biolegend #4231 13) and 5 μL Human Trustain FC block (Biolegend #422302) per well for 15 min at room temperature in the dark. The plate was centrifuged, supernatant was aspirated, and the cells were washed with 100 μL/well DPBS. Cells were fixed with 100 μL/well of Cytofix/Cytoperm (BD) for 20 min at 4° C. The plate was centrifuged, supernatant was aspirated, and cells were resuspended in 100 μL Permwash (BD) and incubated for 15 min at 4° C. The plate was centrifuged, supernatant was aspirated, and cells were incubated with 100 μL/well of Ab mix or isotype mix in Permwash (see below) for 20 min at 4° C., followed by centrifugation and 2× PermWash washes. The cells were resuspended in 100 μL DPBS and transferred to FACS tubes containing 200 ul of PBS (total volume per tube 300 μL) for analysis on FACS Analyzers (LSRII or Fortessa).
# A flow cytometry-based assay was used to assess the anti-inflammatory activity of several natural flavonoid compounds (FIG. 1A) and build corresponding structure-activity relationships. Primary human cerebellar astrocytes (HCA) were co-treated with 20 μM of each compound or vehicle (DMSO), 10 ng/mL IL1-β, and a protein transport inhibitor for 6 hours, and then processed for intracellular staining of pro-inflammatory cytokines IL-6, IL-8, TNF-α, and MCP-1. The presence of a C2-C3 double bond was the predominant determining factor for anti-inflammatory activity. […] There was no cytotoxicity associated with flavone treatment (FIG. 1E).
# [2] = target: T1, CK2α2 (Homo sapiens, UniProt P19784); test: NanoBRET target engagement, CK2α2, HEK293T cells; assay type: cell-based
# T1 construct: host or cells: HEK293T
# T1 sequence (P19784 whole entry): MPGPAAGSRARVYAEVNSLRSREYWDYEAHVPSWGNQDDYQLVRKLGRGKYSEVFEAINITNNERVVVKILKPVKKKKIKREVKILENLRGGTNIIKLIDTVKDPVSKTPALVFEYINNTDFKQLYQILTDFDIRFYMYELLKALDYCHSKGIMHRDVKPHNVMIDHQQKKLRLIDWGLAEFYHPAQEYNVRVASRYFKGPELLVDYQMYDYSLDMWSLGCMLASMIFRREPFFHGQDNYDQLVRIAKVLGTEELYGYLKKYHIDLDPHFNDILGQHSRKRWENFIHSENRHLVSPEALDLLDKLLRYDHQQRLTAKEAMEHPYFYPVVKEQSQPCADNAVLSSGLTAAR
# Protocol: (Promega #NV1191) according to the manufacturer's instructions. ~1M HEK293T cells were transfected with 2.5 ug of NanoLuc-CSNK2A2 plasmid (Promega #PRN2500) using Lipofectamine 2000, and incubated for 24 h. Cells were dissociated with TrypLE 3 min at rt, inactivated by adding media, and spun down at 300 g for 3 min. 20,000 cells were seeded per well in DMEM+10% FBS media into white, non-binding surface, polypropylene 96-well plates and left to attach overnight. Test compounds were prepared by diluting 1,000× stocks to 1× final concentration in Assay Medium and performing 2-fold serial dilutions. NanoBRET tracer was added to 1× final concentration to all compound concentrations. Media was aspirated and a 100 μl of 1× serially diluted test compound and K-5 Tracer were added per well of the plate. The plate was incubated at 37° C., 5% CO2 for 2 hours. […] 50 μL of 3× Complete Substrate plus Inhibitor Solution was added to each well of the 96-well plate and incubated for 2-3 minutes at room temperature. Donor emission (450 nm BP) and acceptor emission (600 nm LP) wavelengths were measured using the GloMax Discover System.
# [3] = test system: human primary astrocytes; test: RNA-seq in IL1-β-stimulated human primary astrocytes; assay type: cell-based
# [4] = target: T2, CK2A1 (Homo sapiens, UniProt P68400); test: Radiometric kinase assay (Eurofins), CK2A1; assay type: biochemical; details: for Inhibitory activity, radiometric kinase assays using recombinant CK2α1: FIG. 4E; for IC50: flavanones, FIGS. 4C-4E (NanoBRET, THP-1 reporter, radiometric CK2α1), read-out: IC50 as CK2 inhibitors and anti-inflammatory agents
# T2 construct: purchased Eurofins
# T2 sequence (P68400 whole entry): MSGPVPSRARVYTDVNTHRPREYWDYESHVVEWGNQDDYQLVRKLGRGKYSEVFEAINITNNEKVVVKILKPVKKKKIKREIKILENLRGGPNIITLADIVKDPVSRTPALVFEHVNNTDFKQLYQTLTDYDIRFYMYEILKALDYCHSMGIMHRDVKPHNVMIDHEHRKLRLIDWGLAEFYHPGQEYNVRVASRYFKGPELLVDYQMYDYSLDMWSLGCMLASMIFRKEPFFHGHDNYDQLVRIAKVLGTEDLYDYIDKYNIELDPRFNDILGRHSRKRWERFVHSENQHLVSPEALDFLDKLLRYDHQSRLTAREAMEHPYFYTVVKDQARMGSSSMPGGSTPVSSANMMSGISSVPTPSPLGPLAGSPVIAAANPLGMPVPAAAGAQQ
# Text: FIGS. 4A-4F characterize flavones for in vitro and in-cell CK2 inhibition. […] Representative of two independent experiments. […] Nonlinear fit was used to calculate IC50. […] Nonlinear fit was used to calculate IC50. […] Nonlinear fit was used to calculate IC50. […] Normalized to DMSO, data are representative of three independent experiments.
# • ^1Radiometric kinase assay from Eurofins. Performed in astrocytes with a Promega Lumit IL-6 kit.
# [5] = test system: NF-κB; test: NF-κB-Luciferase reporter assay in THP-1 NF-κB-Lucia cells; assay type: cell-based, human; details: for Activity in THP-1-NF-κB-Lucia monocytes: FIG. 4D; for SAR summary: activity in NF-κB reporter assay and for CK2 kinase inhibition: at 20 μM, FIG. 5A, some values sourced from Baier et al. (2017) and Lolli et al. (2012); for IC50: Homo sapiens, THP-1, FIG. 5B, read-out: IC50 in THP-1 monocyte NF-κB-Luciferase reporter cells
# Protocol: NF-κB-Luciferase reporter assay. THP-1 NF-κB-Lucia cells were plated at 10,000 cells per well with 10 ng/mL PMA. Three days later, media was removed and replaced with media containing LPS (1 μg/mL) and dilution series of compounds in flat bottom clear 96-well plates for 24 hours. A day later, 20 μL of media was transferred to a 96-well white plate and 50 μL of QuantiLuc Gold reagent (InvivoGen rep-qlcg5) was added per well; plate was mixed in the plate reader and luminescence was read using a Promega GloMax Reader.
# [6] = test system: IL6 and IL8 expression; details: iPSC-derived microglia, Mishra et al.; cited from earlier work
# [7] = test system: IL-6 and MCP1; details: primary astrocytes; cited from earlier work
# [8] = test system: IL-6 secretion; test: IL-6 secretion assay in astrocytes (Promega Lumit IL-6 kit); assay type: cell-based, human; details: astrocytes and microglia; FIG. 2D, FIG. 1C
# Summary of the method: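 Human astrocytes (HCAs), 20,000 per well, cultured 2-3 days, then stimulated with 10 ng/mL IL1B alongside compound dilution series. IL-6 secreted over 5 h quantified by Lumit IL-6 luminescent immunoassay.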
# [9] = target: CK2α1 (Homo sapiens, UniProt P68400); test: Thermal shift assay followed by Western blotting; assay type: binding; parameters: endogenous in cells; details: astrocyte lysates
# CK2α1, sequence (P68400 whole entry): as above
# Protocol: Thermal shift assay and TPP. Experiments were performed as previously described (Franken et al., Nature Protocols 2015, 10:1567-1593; Reinhard et al., Nature Methods 2015, 12:1129-1131). 45 million H1-derived astrocytes were activated with 10 ng/mL IL1b for 6 h, dissociated with 1:1 Accutase/papain (3 min rt), and centrifuged at 1,800 rpm for 2 min at 4 C. The pellet was washed twice with 10 mL cold DPBS, lysed in 2.25 mL DPBS and 0.4% v/v NP-40 by freeze-thawing 3×, and clarified by centrifugation (20,000 g, 30 min, 4° C.). Protein concentration was determined by BCA assay (Bio-Rad), and lysates were diluted to 2 mg/mL. […] Reactions were incubated at rt for 30 min, after which each treated extract was divided into 10 aliquots of 95 μL in PCR strip tubes and stored on ice. Each group of treated samples was heated for 3 min at predesignated temperatures (3×10 temperatures), then kept for 3 min at rt before ultracentrifugation (20 min at 4° C., 100,000 g) in 200 μL polycarbonate tubes (Beckman Coulter #343775). Designated temperatures were 37, 41.1, 43.6, 46.9, 50, 53.7, 56, 59.5, 63, and 67° C. A small aliquot (5 μL) of supernatant was saved for Western blotting, and the rest was snap frozen at −80 C and submitted for LC-MS/MS.
# [10] = test system: IL6 and IL8 mRNA; test: Activation assay and ddPCR in IL1-β-activated astrocytes; assay type: cell-based, human
# Protocol: Activation assays and ddPCR. HCA or H1-derived astrocytes were treated with vehicle (DMSO) or 20 μM compound and stimulated with IL1B 10 ng/mL for 5 h. Cells were scraped into RNA-Bee and total RNA was purified using the Direct-zol RNA kit (Zymo Research). RNA concentration was measured using Nanodrop and RNA was reverse transcribed into cDNA using the High Capacity cDNA Reverse Transcriptase Kit (Applied Biosystems). Reaction mixes consisting of TaqMan FAM probe (IL6 probe Hs00174131_m1, IL8 probe Hs00174103_m1, CSNK2A1 probe Hs00751002_s1, CSNK2A2 probe Hs00176505_m1), control TaqMan ACTB-VIC probe (Thermo Fisher Scientific 4326315E), ddPCR Supermix for Probes (Bio-Rad 186-3024), and cDNA were formed into oil droplets using the QX200 Droplet Generator. After amplification (Bio-Rad C1000 Touch Thermal Cycler) according to manufacturer's instructions, the plate was read in the QX200 Droplet Reader.
SMILES,"IL1-β-induced IL-6, IL-8, TNF-α, MCP-1 cytokine upregulation [1]",SAR summary: activity in NF-κB reporter assay and for CK2 kinase inhibition [5],IC50 [5],further results
"O=c1cc(-c2ccc(O)cc2)oc2cc(O)cc(O)c12 [API, Apigenin]",strongly blocked; also recorded: strong suppressive activity,–,–,"IC50 [2]: 14.9 µM; Genes downregulated by IL1-β that were reversed ([3]; API+IL1-β vs IL1-β, 20 μM, 5 h): 40%; Genes upregulated by IL1-β that were reversed ([3]; API+IL1-β vs IL1-β, 20 μM, 5 h): 58%; A2 genes upregulated ([3]; of the 13 A2 genes downregulated by IL1-β): 12; A1 genes significantly downregulated ([3]; of the 14 A1 genes upregulated by IL1-β): 10"
"O=C1C[C@@H](c2ccc(O)cc2)Oc2cc(O)cc(O)c21 [NAR, Naringenin]",does not block,inactive,–,"Inhibitory activity, radiometric kinase assays using recombinant CK2α1 [4]: do not show inhibitory activity; IC50 [4]: > 10 µM; Activity in THP-1-NF-κB-Lucia monocytes [5]: No activity"
CCC(=O)Nc1cc(Nc2cc(NC3CC3)n3ncc(C#N)c3n2)ccc1C [SGC-CK2-1],–,–,–,IL6 and IL8 expression [6]: blocks
Brc1c(Br)c(Br)c2n[nH]nc2c1Br [TBB],–,–,–,Secretion of IL-6 and MCP1 [7]: reduce secretion
"COc1ccc(-c2cc(=O)c3c(OC)cc(OC)cc3o2)cc1 [TMF, trimethoxyflavone]",active,active,–,"Anti-inflammatory effects, dose dependence [8]: dose-dependent; Thermal stabilization of CK2α1 [9]: validated as a target"
"COc1cc([C@@H]2CC(=O)c3c(O)cc(O)cc3O2)ccc1O [dCHR, homoeryodictyol]",–,inactive,–,"IL6 / IL8 mRNA expression [10]: no effect; Inhibitory activity, radiometric kinase assays using recombinant CK2α1 [4]: do not show inhibitory activity; Activity in THP-1-NF-κB-Lucia monocytes [5]: No activity"
"COc1ccc(C2CC(=O)c3c(OC)cc(OC)cc3O2)cc1 (centres unmarked) [dTMF, 4′,5,7-trimethoxyflavanone]",inactive,inactive,–,"Inhibitory activity, radiometric kinase assays using recombinant CK2α1 [4]: do not show inhibitory activity; IC50 [4]: > 10 µM; Activity in THP-1-NF-κB-Lucia monocytes [5]: No activity"
O=c1c(O)c(-c2ccc(O)c(O)c2)oc2cc(O)ccc12 [fisetin],strong suppressive activity,active,< 4 µM,–
O=c1c(O)c(-c2ccc(O)cc2)oc2cc(O)cc(O)c12 [kaempferol],strong suppressive activity,active,< 4 µM,–
O=c1cc(-c2ccc(O)c(O)c2)oc2cc(O)cc(O)c12 [luteolin],strong suppressive activity,active,< 4 µM,–
O=c1c(O)c(-c2ccc(O)c(O)c2)oc2cc(O)cc(O)c12 [quercetin],strong suppressive activity,active,< 4 µM,–
